Results on six compounds are retold here after US20210371817A1, “COMPOSITIONS AND METHODS FOR PRECISE PATTERNING OF POSTERIOR NEUROECTODERM FROM HUMAN PLURIPOTENT STEM CELLS” (WISCONSIN ALUMNI RESEARCH FOUNDATION, priority 2013, published 2021).

“Also recorded” adds a separate entry of the source. Bounds are passed on as bounds.

For data set [1], the system named is neuromesodermal cells. The data set is described as follows: Pax6 and HoxD10 expression after GDF11 with or without dorsomorphin, then RA. It is filed as cell-based, human. Particulars: dorsomorphin with GDF11 and throughout RA treatment. An excerpt:
(FIG. 7A) Timeline of differentiation. (FIG. 7B) qPCR assessment of lumbar/sacral gene expression at day 12. A minimum concentration of GDF11 is required to activate HoxD10 and HoxA11. Each gene is normalized to the maximum GDF11 dose. Error bars are standard deviation calculated from duplicate reactions. (FIG. 7C) Expression of Pax6 in response to increased GDF11 concentrations. Data were collected by flow cytometry and represented as mean±standard deviation calculated from two biological replicates. Sox2 was uniformly expressed regardless of GDF11 treatment (data not shown). […] Grey histograms, IgG control; Red histograms, Pax6. Data are representative of two biological replicates. […] Percentages were quantified as HoxD10 labeling relative to DAPI-stained nuclei (>2500 total cells counted per sample). Scale bars, 100 μm
After neural tube closure in vivo, opposing gradients of TGFβ and SHH signaling produce distinct dorsal and ventral domains from which sensory neurons, interneurons, and motor neurons arise. Pax6, which has been identified as a neuroectoderm fate determinant, is expressed throughout most of the neural tube but is absent from the most dorsal and ventral domains. […] The ability of GDF11 to control rostral/caudal patterning is mediated by signaling via ALK5 and activation of the SMAD2/3 complex. […]

For data set [2], the system named is neuromesodermal progenitors. The data set is described as follows: Neuroectoderm or mesoderm fate transition of neuromesodermal progenitors by flow cytometry. The data set is classed as cell-based, human. The protocol:
Assessment of neuroectoderm or mesoderm fate transition by flow cytometry. Grey histogram, IgG control; red histogram, antigen of interest. Data are presented as mean±standard deviation calculated from two biological replicates. (FIG. 8B) For experiments in panels FIGS. 8C-8F, neuromesodermal propagation was halted by removing FGF8b/CHIR 99021/GDF11 and adding RA. Assays were conducted after 4 days of RA treatment. (FIG. 8C) HOX profiles generated after RA treatment. Each gene is normalized to its maximum expression. Error bars are standard deviation calculated from duplicate reactions. (FIG. 8D) HoxB4 and HoxD10 expression in neuroepithelial cultures after RA treatment. Scale bars, 100 m. (FIG. 8E) Purity of Sox2, Pax6, HoxB4, and HoxD10 after 4 days of RA treatment. Sox2, Pax6, and HoxB4 were quantified using flow cytometry and HoxD10 was quantified by manual counting of dissociated cells ([…]). Error bars are standard deviation calculated from at least two biological replicates. […] (FIG. 8F) Motor neuron differentiation at cervical, thoracic, and lumbar spinal cord depths, where the motor neuron precursors show region-specific patterns of FoxP1, Isl1, and Hb9 co-expression. (FIG. 8G) Neuronal maturation from cervical, thoracic, and lumbar patterned NSCs, as assessed by immunocytochemistry (top panel; DAPI (blue) is overlaid in all images; Scale bars, 20 m) and RT-PCR (50 cycles; bottom panel).
Flow cytometry. Flow cytometry was conducted as described in the Examples above. Primary antibodies against Sox2 (mouse; 1:1000; Millipore), brachyury (goat; 1:200; R&D Systems), Pax6 (mouse; 1:200; DSHB), and HoxB4 (rat; 1:50; DSHB) were utilized. Samples were run on a FACSCaliber (BD Biosciences) and data were analyzed using Cyflogic software. Positive events were quantified by gating above the top 1% of species-matched IgG controls.
We next evaluated the transition of neuromesodermal progenitors to definitive neural progenitors. RA secreted from somites in response to declining FGF signaling elicits dorsal/ventral patterning and expression of the neuroectoderm marker Pax6 in vivo^16, 26, which led us to suspect RA serves as both the neuroectoderm fate switch and HOX ‘stop signal’. We first investigated the ability of RA to initiate neuroectoderm specification from neuromesodermal progenitors. […] At any point in neuromesodermal differentiation, the addition of RA generated highly pure (>83%) Pax6^+ neuroectoderm (FIGS. 8B-8E and FIGS. 9A-9C).
In general terms: A flow cytometer gives signals particle by particle.

For data set [3], the system named is IMR90-4 iPSCs. The data set is described as follows: Neuromesodermal differentiation from IMR90-4 iPSCs. It is filed as cell-based, human. The procedure:
FIGS. 11A-11C show neuromesodermal differentiation from IMR90-4 iPSCs. (FIG. 11A) Timeline of neuromesodermal differentiation. (FIG. 11B) Neuromesodermal identity assessed during differentiation in 2 or 3 μM CHIR 99021. Grey histograms, IgG control. Red histograms, label of interest. Data are presented as mean±standard deviation calculated from two biological replicates. […] (FIG. 11C) Colinear HOX activation observed by qPCR during neuromesodermal differentiation. Each gene is normalized to its maximum expression. Error bars are standard deviation calculated from duplicate reactions.
Differentiation was conducted according to the protocol of FIG. 11A. Neuromesodermal identity was assessed during differentiation in both 2 and 3 μM CHIR (FIG. 11B). Grey histograms are IgG control, and red histograms are the label of interest. […] During neuromesodermal propagation, progressive HOX activation was verified by qPCR (FIG. 11C).

In data set [4] the test system is H9 hESCs. Nature of the data set: HOX, OTX2 and T gene expression by RT-PCR/qPCR during hESC differentiation with morphogens. The data set is classed as cell-based, human. The protocol:
hPSC differentiation. hPSCs were washed once with phosphate-buffered saline (PBS; Invitrogen), dissociated with ACCUTASE® (Invitrogen) for 3 min, and collected by centrifugation. hPSCs were then seeded onto VTN-NC-coated plates in E8 medium containing 10 μM ROCK inhibitor (Y27632; R&D Systems). Seeding density was 2×10^5 cells/cm^2. The following day, the cells were switched to E6 medium (same composition as E8 medium minus FGF2 and TGFβ 1). Morphogen treatments were then carried out according to the figures in the text. Cells were supplemented with FGF8b (100-200 ng/ml; Peprotech), CHIR99021 (3-6 μM; Tocris), and/or RA (3 μM; Sigma).
Reverse transcriptase polymerase chain reaction (RT-PCR). Total RNA was extracted from cells using TRIZOL® reagent (Invitrogen) according to the manufacturer's instructions. RNA was then subjected to reverse-transcription using a Thermoscript™ RT-PCR kit (Invitrogen) in a 20 μL mixture according to the manufacturer's instructions. The resulting cDNA was then amplified in a 25 μL mixture containing 10×PCR buffer, 0.2 mM dNTP, 1.5 mM MgCl2, 0.5 μM of each primer, and 1 U Taq DNA polymerase (Invitrogen). Amplified products were resolved on 2% agarose gels containing SYBR Safe (Invitrogen) and visualized with a VersaDoc (BioRad). Primer sequences can be found in Table 3. All amplifications were carried out for 35 cycles. HOXC5 and HOXC6 were amplified at 58° C., all others with an annealing temperature of 55° C.
Propagation and differentiation of neuromesodermal progenitors. H9 hESCs (passage 25-45), H9 ishcat2 hESCs (passage 33-43), and IMR90-4 iPSCs (passage 31-40) were maintained in E8 medium on MATRIGEL© (BD Biosciences) as previously described. To initiate differentiation, hPSCs were passaged with ACCUTASE© (Life Technologies) onto vitronectin (VTN-NC)-coated plates at a density of 1×10^5 cells/cm^2 as previously described. The following day, cells were changed to E6 medium. 24 h later, cells were changed to E6 medium containing 200 ng/ml FGF8b (Peprotech). 24 h later, cells were washed once with 2 ml PBS, treated with ACCUTASE® for 2 min, and removed from the surface by gentle pipetting. After collection by centrifugation, cells were gently resuspended in E6 medium containing 200 ng/ml FGF8b and CHIR99021 (CHIR, concentration varied depending on cell line; Tocris) and re-seeded on VTN-NC-coated plates at a density of 1.5×10^5 cells/cm^2. Medium was not changed until 48 h after passaging. This passaging process was repeated on day 3 of CHIR 99021 treatment (re-seed density of 1.2×10^5 cells/cm^2) if extended neuromesodermal propagation was required, and 50 ng/ml GDF11 (Peprotech) was added on day 4 of CHIR 99021 treatment to initiate lumbar patterning. Cells were changed to E6 medium containing 1 μM retinoic acid (RA; Sigma) to facilitate neural transition.
qPCR. Total RNA was extracted from cultured cells using TRIZOL® (Life Technologies) according to the manufacturer's instructions. After isolation, 2-5 μg of total RNA was immediately subjected to reverse transcription using the Thermoscript™ RT-PCR kit (Life Technologies) in a 20 μL reaction according to the manufacturer's instructions. […] For all experiments, ΔΔCt values for each gene were calculated relative to ribosomal protein S18 (RPS18) RNA levels and converted to fold difference assuming 100% primer efficiency, then normalized to maximum expression levels as indicated in each figure legend. […]

In data set [5] the test system is neuromesodermal cultures. Nature of the data set: Effect of signaling pathway inhibitors on neuromesodermal identity (Sox2 and T by flow cytometry). As to conditions: for Sox2+ cells: LY-294002 10 μM, U0126 10 μM, GF109203X 3 μM, or all three at 1 μM, after 2 days. The text has this:
(FIG. 13A) Timeline of neuromesodermal differentiation and inhibitor addition. (FIG. 13B) Neuromesodermal identity assessed by Sox2 and Brachyury (T) expression after two days. Grey histograms, IgG control. Red histograms, label of interest. LY, LY-294002; U0126, U0126; Gf, GF109203X.
In an attempt to identify which downstream signaling pathways are responsible for FGF's effects, we performed our protocol with various combinations of a PI3K inhibitor (LY-294002), an MEK inhibitor (U0126), and a PKC inhibitor (GF109203X), and measured Sox2 and T levels using flow cytometry.

Data set [6] deals with neuromesodermal progenitors. The data set is described as follows: Accelerated neuronal differentiation of neuromesodermal progenitors. It is filed as cell-based, human. As to conditions: DAPT 1 μM; within 7 days. The protocol: For assessment of columnar identity by FoxP1 expression, cells were bulk passaged by scraping and re-seeded in VTN-NC-coated chamber slides at a 1:200 ratio in E6 medium containing 1 μM RA and 100 nM purmorphamine (PM; Cayman Chemicals). RA/PM treatment was carried out for 7 days, followed by an additional 7 day treatment with 10 ng/ml brain-derived neurotrophic factor (BDNF; Peprotech), 10 ng/ml glial-derived neurotrophic factor (GDNF; Peprotech), and cAMP (1 μM; Sigma). For accelerated neuronal differentiation, neuromesodermal progenitors were treated with 1 μM RA, 2 μM PM, and 1 μg/ml recombinant sonic hedgehog (SHH) for 2 days, then passaged with ACCUTASE® and re-seeded in VTN-NC coated chamber slides at 1×10^4 cells/cm^2 in E6 medium containing 1 μM RA, 1 μM DAPT (Cayman Chemicals), 10 ng/ml BDNF, 10 ng/ml GDNF, and 1 μM cAMP for 7 days.
Immunocytochemistry. Immunocytochemistry was conducted as previously described. Primary antibodies against Sox2 (1:500), brachyury (1:500), Pax6 (rabbit; 1:500; Covance), N-cadherin (mouse; 1:500; BD Biosciences), Otx2 (goat; 1:500; R&D Systems), HoxB4 (rat; 1:50; DSHB), HoxD10 (goat; 1:500; R&D Systems), NeuN (mouse; 1:100; Millipore), Hb9 (mouse; 1:50; DSHB), ISL1 (mouse; 1:100; DSHB), and FoxP1 (rabbit; 1:20,000; Abcam) were utilized. Samples were visualized on a Nikon Ti-E epifluorescence microscope or a Nikon AIR confocal microscope. […]

Where [7] appears, read: neuromesodermal progenitors exposed to E6 medium with the substance.

For the compound `c1cc(-c2cnn3cc(-c4ccc(OCCN5CCCCC5)cc4)cnc23)ccn1` [dorsomorphin], in data set [1], the “Pax6+ cells” value is listed as 83±4%.

As for `Cc1c[nH]c(-c2cnc(NCCNc3ccc(C#N)cn3)nc2-c2ccc(Cl)cc2Cl)n1` [CHIR 99021], in data set [2] (added with RA), the “Effect on ability of RA to induce Pax6 expression” value was “repressed its ability to induce Pax6 expression”. In addition, in data set [2] (setting [7]), the “Brachyury+ cells” value is recorded as 96±1% and the “Sox2+ cells” value is on record as 50±8%. The Neuromesodermal identity entry in data set [3] (2 μM CHIR) was “maintained the neuromesodermal state”. The Neuromesodermal identity result in data set [3] (3 μM CHIR) is recorded as “resulted in a mesodermal shift”. Further, in data set [4] (morphogen added to E6 medium, up to 4 days), the “HOX gene activation (RT-PCR)” value is on record as “could induce Hox gene expression; also recorded: induced progressive HOX activation from HOXA1 down to HOXC5”. Moreover, the “OTX2 expression reduction compared to RA” value in data set [4] (qPCR day 5, CHIR 99021 3 μM, RA 1 μM) is greater than 100 fold.

For `O=c1cc(N2CCOCC2)oc2c(-c3ccccc3)cccc12` [LY-294002], in data set [5], the “Sox2+ cells” value came to 99%.

In the case of `N#CC(=C(/N)Sc1ccccc1N)/C(C#N)=C(\N)Sc1ccccc1N` [U0126], the “Sox2+ cells” value in data set [5] was 99%.

In the case of `C[C@H](NC(=O)Cc1cc(F)cc(F)c1)C(=O)N[C@H](C(=O)OC(C)(C)C)c1ccccc1` [DAPT], the “NeuN+ neuronal lineage cells” value in data set [6] is recorded as greater than 95%.

Regarding `CN(C)CCCn1cc(C2=C(c3c[nH]c4ccccc34)C(=O)NC2=O)c2ccccc21` [GF109203X], in data set [5], the “maximum dose that did not kill all cells” value was found to be 3 µM and the “Sox2+ cells” value was found to be 99%.
